The test system of one data set is CWR-22RV1 cells. The data set is described as follows: Clonogenic survival with ionizing radiation with or w/o SAR302503. In kind it is cell-based. The note with it: 0.5 μM SAR302503, 2 or 5 Gy. The method, then: (§1) These cell lines were characterized for relative radioresistance using a clonogenic assay. Briefly, the cells were cultured in their appropriate media at 5% CO2 at 37° C. Optimal cell plating concentrations for a p60 dish were determined for each cell line. The majority of cell lines were plated in triplicate at concentrations of 100 cells/plate for control, 1000 cells/plate for 2 Gy, 2000 cells/plate for 5 Gy, and 3000 cells/plate for 8 Gy. Plates were irradiated 24 hours after plating with either 2, 5, or 8 Gy using a irradiated using a Nordion Gammacell ^60Co irradiator operating at a dose rate of ˜18 Gy/minute. Cells were allowed to grow for 10-21 days (depending on the cell line) until colonies were >50 cells. Plates were then fixed with formalin and stained with crystal violet. Colonies with more than 50 cells were counted. Clonogenic survival for Clonogenic data was obtained for all cell lines tested in screen.
(§2) To determine the potential therapeutic value of targeting the JAK/STAT pathway in prostate cancer, the cells were exposed to the specific JAK2 inhibitor SAR302503. Since it is expected that the greatest value of inhibiting the JAK/STAT pathway is in combination with other toxic insults we evaluated the effect of ionizing radiation used in the treatment of CRPC, and SAR302503 in the genetically related CWR lines (FIG. 2). […]

The next data set deals with CWR-R1 cells. The description is as above. In kind it is cell-based. The note with it: 0.5 μM SAR302503, 2 or 5 Gy. The method, then: as §1, §2
In a further data set the test system is CWR-22RV1 xenografts. Nature of the data set: Xenograft tumor growth in nude mice. In kind it is in vivo. As for the experimental part: (§3) To determine the potential therapeutic value of targeting the JAK/STAT pathway in prostate cancer, the cells were exposed to the specific JAK2 inhibitor SAR302503. Since it is expected that the greatest value of inhibiting the JAK/STAT pathway is in combination with other toxic insults we evaluated the effect of ionizing radiation used in the treatment of CRPC, and SAR302503 in the genetically related CWR lines (FIG. 2). Cells were plated in p60 dishes with or w/o 0.5 μM of SAR302503 and irradiated with 2 or 5 Gy (or left un-irradiated). Colonies counting and estimation of survival fractions were performed as described elsewhere (Khodarev et. al., 2007, Cancer Research). […] To extend these observations in preclinical animal models we established xenografts of CWR-R1 and CWR-22RV1. For this purpose 10^7 cells were injected in the right flank of each nude mice (5 animals per group) and when tumors reached 200 mm^3 in volume mice were either left un-treated, or treated with SAR302503 (120 mg/kg, once a day, 4 days) or irradiated locally (2×10 Gy) or subjected to combined treatments with SAR302503 and IR. […] At the same tumors treatment by SAR302503 alone led to the 4-days growth delay compared with control tumors. These effects were not observed in CWRR1. Molecular differences between two tumors are currently under investigation. The difference between CWR-R1 and CWR-22RV1 is especially noteworthy since they are isogenic, castrate resistant, and carry both native and splice variant androgen receptor, which is reminiscent of the findings in human prostate cancer specimens.

The next data set deals with CWR-R1 xenografts. Nature of the data set: Xenograft tumor growth in nude mice. In kind it is in vivo. The note with it: CWRR1. As for the experimental part:
as §3

Regarding `Cc1cnc(Nc2ccc(OCCN3CCCC3)cc2)nc1Nc1cccc(S(=O)(=O)NC(C)(C)C)c1` [SAR302503], the “enhancement of effects of IR (survival fraction, colonies)” value with CWR-22RV1 cells is on record as “significantly enhanced”. For the same compound, the “enhancement of cytotoxic activity of IR (survival fraction, colonies)” value in the data set with CWR-R1 cells is listed as “not enhanced”. For the same compound, the “tumor growth, combined treatment with IR” value is on record as “significant suppression of tumor growth” in the data set with CWR-22RV1 xenografts (120 mg/kg once a day 4 days + IR 2×10 Gy, by day 9 after beginning of treatment) and “not observed” in the data set on CWR-R1 xenografts (120 mg/kg once a day 4 days + IR 2×10 Gy). Moreover, the “growth delay compared with control tumors, inhibitor alone” value is listed as 4 days with CWR-22RV1 xenografts (120 mg/kg, once a day, 4 days) and “not observed” with CWR-R1 xenografts (120 mg/kg, once a day, 4 days).

The values are drawn from patent US10561708B2, “Anti-tumor therapy” (The University of Chicago, priority 2013, dated 2020).
